From US9999619B2, “Piperidin-4-yl azetidine derivatives as JAK1 inhibitors” (Incyte Corporation, priority 2010, dated 2018) come the findings set out here.

The IC50 is the concentration that inhibits the measured activity by half. Read a low IC50 as greater potency in that assay.

Molecules are shown by their SMILES. Some results are limits rather than exact numbers.

The target of this experiment is Jak2 (a.a. 828-1132) (Homo sapiens (Human), UniProt O60674). Put plainly: In vitro JAK kinase assay (HTRF, phosphorylation of a biotinylated peptide), JAK2. Format: biochemical. The conditions noted are these: measured at 1 mM ATP. As to the method: Compounds herein were tested for inhibitory activity of JAK targets according to the following in vitro assay described in Park et al., Analytical Biochemistry 1999, 269, 94-104. The catalytic domains of human JAK1 (a.a. 837-1142), Jak2 (a.a. 828-1132) and Jak3 (a.a. 781-1124) with an N-terminal His tag were expressed using baculovirus in insect cells and purified. The catalytic activity of JAK1, JAK2 or JAK3 was assayed by measuring the phosphorylation of a biotinylated peptide. The phosphorylated peptide was detected by homogenous time resolved fluorescence (HTRF). […] Reactions were carried out at room temperature for 1 hr and then stopped with 20 μL 45 mM EDTA, 300 nM SA-APC, 6 nM Eu-Py20 in assay buffer (Perkin Elmer, Boston, Mass.). Binding to the Europium labeled antibody took place for 40 minutes and HTRF signal was measured on a Fusion plate reader (Perkin Elmer, Boston, Mass.).
Sequence of Jak2 (a.a. 828-1132) (O60674 828-1132): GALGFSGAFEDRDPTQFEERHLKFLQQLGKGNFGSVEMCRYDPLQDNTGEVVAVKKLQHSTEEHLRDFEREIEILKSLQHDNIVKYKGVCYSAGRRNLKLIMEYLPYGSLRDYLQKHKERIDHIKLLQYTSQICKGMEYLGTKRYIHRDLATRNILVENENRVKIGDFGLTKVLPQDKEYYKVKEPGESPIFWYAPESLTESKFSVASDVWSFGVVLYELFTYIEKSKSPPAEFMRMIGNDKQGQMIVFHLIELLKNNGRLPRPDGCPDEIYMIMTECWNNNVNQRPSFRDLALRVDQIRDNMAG
Consider `N#CCC1(n2cc(-c3ncnc4[nH]ccc34)cn2)CN(C2CCN(S(=O)(=O)C3CC3)CC2)C1` [Example 256, {1-[1-(cyclopropylsulfonyl)piperidin-4-yl]-3-[4-(7H-pyrrolo[2,3-d]pyrimidin-4-yl)-1H-pyrazol-1-yl]azetidin-3-yl}acetonitrile], for which the IC50 is 10 to 50 nM. Then `Cc1ccc(C#N)c(N2CCC(C(=O)N3CCC(N4CC(CC#N)(n5cc(-c6ncnc7[nH]ccc67)cn5)C4)CC3)CC2)n1` [Example 108, 2-{4-[(4-{3-(cyanomethyl)-3-[4-(7H-pyrrolo[2,3-d]pyrimidin-4-yl)-1H-pyrazol-1-yl]azetidin-1-yl}piperidin-1-yl)carbonyl]piperidin-1-yl}-6-methylnicotinonitrile], with 10 to 50 nM; and `CSc1ccc(C(=O)N2CCC(N3CC(CC#N)(n4cc(-c5ncnc6[nH]ccc56)cn4)C3)CC2)cc1F` [Example 62, {1-{1-[3-fluoro-4-(methylthio)benzoyl]piperidin-4-yl}-3-[4-(7H-pyrrolo[2,3-d]pyrimidin-4-yl)-1H-pyrazol-1-yl]azetidin-3-yl}acetonitrile], with 50 to 100 nM; and `COc1cc(C(F)(F)F)sc1C(=O)N1CCC(N2CC(CC#N)(n3cc(-c4ncnc5[nH]ccc45)cn3)C2)CC1` [Example 70, {1-{1-[3-methoxy-5-(trifluoromethyl)-2-thienylcarbonyl]piperidin-4-yl}-3-[4-(7H-pyrrolo[2,3-d]pyrimidin-4-yl)-1H-pyrazol-1-yl]azetidin-3-yl}acetonitrile], with at most 10 nM.

Molecule `N#CCC1(n2cc(-c3ncnc4[nH]ccc34)cn2)CN(C2CC3CCC(C2)N3C(=O)C2CCC(F)(F)CC2)C1` (stereo not shown) [Example 148, {1-{8-[(4,4-difluorocyclohexyl)carbonyl]-8-azabicyclo[3.2.1]oct-3-yl}-3-[4-(7H-pyrrolo[2,3-d]pyrimidin-4-yl)-1H-pyrazol-1-yl]azetidin-3-yl}acetonitrile] had an IC50 of at most 10 nM.

In turn, `CCS(=O)(=O)N1CCC(N2CC(CC#N)(n3cc(-c4ncnc5[nH]ccc45)cn3)C2)CC1` [Example 255, {1-[1-(ethylsulfonyl)piperidin-4-yl]-3-[4-(7H-pyrrolo[2,3-d]pyrimidin-4-yl)-1H-pyrazol-1-yl]azetidin-3-yl}acetonitrile] came in with a concentration for half-maximal inhibition (IC50) of 10 to 50 nM.

In turn, `N#CCC1(n2cc(-c3ncnc4[nH]ccc34)cn2)CN(C2CCN(C(=O)OCC3CCCCC3)CC2)C1` [Example 397, cyclohexylmethyl 4-{3-(cyanomethyl)-3-[4-(7H-pyrrolo[2,3-d]pyrimidin-4-yl)-1H-pyrazol-1-yl]azetidin-1-yl}piperidine-1-carboxylate] came in with a 50% inhibitory concentration (IC50) of 10 to 50 nM.

Regarding `N#CCC1(n2cc(-c3ncnc4[nH]ccc34)cn2)CN(C2CCN(C(=O)c3ccc(-c4nccs4)c(F)c3)CC2)C1` [Example 122, {1-{1-[3-fluoro-4-(1,3-thiazol-2-yl)benzoyl]piperidin-4-yl}-3-[4-(7H-pyrrolo[2,3-d]pyrimidin-4-yl)-1H-pyrazol-1-yl]azetidin-3-yl}acetonitrile], the concentration for half-maximal inhibition (IC50) lay in the range of 10 to 50 nM. Molecule `N#CCC1(n2cc(-c3ncnc4[nH]ccc34)cn2)CN(C2CCN(C(=O)c3ccc(C#N)c(F)c3)CC2)C1` [Example 66, 4-[(4-{3-(cyanomethyl)-3-[4-(7H-pyrrolo[2,3-d]pyrimidin-4-yl)-1H-pyrazol-1-yl]azetidin-1-yl}piperidin-1-yl)carbonyl]-2-fluorobenzonitrile] registered a 50% inhibitory concentration (IC50) of 50 to 100 nM. In turn, `CS(=O)(=O)N1CCC(N2CC(CC#N)(n3cc(-c4ncnc5[nH]ccc45)cn3)C2)CC1` [Example 254, {1-[1-(methylsulfonyl)piperidin-4-yl]-3-[4-(7H-pyrrolo[2,3-d]pyrimidin-4-yl)-1H-pyrazol-1-yl]azetidin-3-yl}acetonitrile] yielded an IC50 of 10 to 50 nM.
